Measured values as given in PubChem BioAssay (NCI).
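These data come from cells grown in 96-well plates and exposed to compound for 48 hours at five concentrations. GI50 marks 50% less growth. Definition used: TGI = concentration required for complete inhibition of growth.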

Tests used:
Experiment in all cases: NCI anticancer screen, dose series, 48 h
HOP-62 NSCLC = system: HOP-62 NSCLC
MOLT-4 leukemia = system: MOLT-4 leukemia
T-47D breast = system: T-47D breast
U251 CNS = system: U251 CNS
SR leukemia = system: SR leukemia
RPMI-8226 leukemia = system: RPMI-8226 leukemia
RXF 393 renal = system: RXF 393 renal
EKVX NSCLC = system: EKVX NSCLC
LOX IMVI melanoma = system: LOX IMVI melanoma
DU-145 prostate = system: DU-145 prostate
NCI/ADR-RES ovarian = system: NCI/ADR-RES ovarian
MDA-MB-231 breast = system: MDA-MB-231 breast
A549 NSCLC = system: A549 NSCLC
K-562 leukemia = system: K-562 leukemia
NCI-H522 lung = system: NCI-H522 lung
SK-MEL-2 melanoma = system: SK-MEL-2 melanoma
CAKI-1 renal = system: CAKI-1 renal
HCC-2998 colon = system: HCC-2998 colon
OVCAR-8 ovarian = system: OVCAR-8 ovarian
NCI-H460 lung = system: NCI-H460 lung
HL-60(TB) leukemia = system: HL-60(TB) leukemia
UACC-257 melanoma = system: UACC-257 melanoma
HT29 colon = system: HT29 colon
SNB-75 CNS = system: SNB-75 CNS
HS 578T breast = system: HS 578T breast
CCRF-CEM leukemia = system: CCRF-CEM leukemia
SF-268 CNS = system: SF-268 CNS
SK-MEL-5 melanoma = system: SK-MEL-5 melanoma
TK-10 renal = system: TK-10 renal
MDA-MB-435 = system: MDA-MB-435
MALME-3M melanoma = system: MALME-3M melanoma
COLO 205 colon = system: COLO 205 colon
SW-620 colon = system: SW-620 colon
UO-31 renal = system: UO-31 renal
UACC-62 melanoma = system: UACC-62 melanoma
SK-OV-3 ovarian = system: SK-OV-3 ovarian
PC-3 prostate = system: PC-3 prostate
NCI-H226 lung = system: NCI-H226 lung
SNB-19 CNS = system: SNB-19 CNS
OVCAR-4 ovarian = system: OVCAR-4 ovarian
ACHN renal = system: ACHN renal
OVCAR-3 ovarian = system: OVCAR-3 ovarian
OVCAR-5 ovarian = system: OVCAR-5 ovarian
BT-549 breast = system: BT-549 breast
786-0 renal = system: 786-0 renal
HCT-15 colon = system: HCT-15 colon
IGROV1 ovarian = system: IGROV1 ovarian
MCF7 breast = system: MCF7 breast
SF-539 CNS = system: SF-539 CNS
M14 melanoma = system: M14 melanoma
NCI-H23 lung = system: NCI-H23 lung
KM12 colon = system: KM12 colon
HCT-116 colon = system: HCT-116 colon
SF-295 CNS = system: SF-295 CNS

COC(=O)/C=C1/SC(=Nc2ccc(C(F)(F)F)cc2)N(CCc2c[nH]c3ccc(O)cc23)C1=O
GI50 (HOP-62 NSCLC): 1.75 µM
TGI (HOP-62 NSCLC): 3.85 µM
GI50 (MOLT-4 leukemia): 0.349 µM
TGI (MOLT-4 leukemia): 10.1 µM
GI50 (T-47D breast): 2.07 µM
TGI (T-47D breast): 9.64 µM
GI50 (U251 CNS): 1.46 µM
TGI (U251 CNS): 3.05 µM
GI50 (SR leukemia): 0.416 µM
TGI (SR leukemia): 5.25 µM
GI50 (RPMI-8226 leukemia): 0.722 µM
TGI (RPMI-8226 leukemia): 3.26 µM
GI50 (RXF 393 renal): 1.16 µM
TGI (RXF 393 renal): 2.59 µM
GI50 (EKVX NSCLC): 3.2 µM
TGI (EKVX NSCLC): > 100 µM
GI50 (LOX IMVI melanoma): 1.25 µM
TGI (LOX IMVI melanoma): 2.68 µM
GI50 (DU-145 prostate): 2.21 µM
TGI (DU-145 prostate): > 100 µM
GI50 (NCI/ADR-RES ovarian): 2.16 µM
TGI (NCI/ADR-RES ovarian): 8.96 µM
GI50 (MDA-MB-231 breast): 1.91 µM
TGI (MDA-MB-231 breast): 4.67 µM
GI50 (A549 NSCLC): 3.05 µM
TGI (A549 NSCLC): > 100 µM
GI50 (K-562 leukemia): 1.55 µM
TGI (K-562 leukemia): > 100 µM
GI50 (NCI-H522 lung): 1.5 µM
TGI (NCI-H522 lung): 3.25 µM
GI50 (SK-MEL-2 melanoma): 1.52 µM
TGI (SK-MEL-2 melanoma): 3.22 µM
GI50 (CAKI-1 renal): 2.71 µM
TGI (CAKI-1 renal): > 100 µM
GI50 (HCC-2998 colon): 1.94 µM
TGI (HCC-2998 colon): 3.56 µM
GI50 (OVCAR-8 ovarian): 1.62 µM
TGI (OVCAR-8 ovarian): 6.04 µM
GI50 (NCI-H460 lung): 1.87 µM
TGI (NCI-H460 lung): 3.79 µM
GI50 (HL-60(TB) leukemia): 1.57 µM
TGI (HL-60(TB) leukemia): 6.65 µM
GI50 (UACC-257 melanoma): 1.94 µM
TGI (UACC-257 melanoma): 5.17 µM
GI50 (HT29 colon): 1.75 µM
TGI (HT29 colon): 3.43 µM
GI50 (SNB-75 CNS): 2.27 µM
TGI (SNB-75 CNS): 9.68 µM
GI50 (HS 578T breast): 1.87 µM
TGI (HS 578T breast): 5.78 µM
GI50 (CCRF-CEM leukemia): 0.569 µM
TGI (CCRF-CEM leukemia): 6.69 µM
GI50 (SF-268 CNS): 1.69 µM
TGI (SF-268 CNS): 5.36 µM
GI50 (SK-MEL-5 melanoma): 1.86 µM
TGI (SK-MEL-5 melanoma): 3.99 µM
GI50 (TK-10 renal): 2.25 µM
TGI (TK-10 renal): 5.76 µM

COCP1(=S)OC(C)CCN1C(C)C (stereo not given)
TGI (MDA-MB-435): > 100 µM
TGI (MALME-3M melanoma): > 100 µM
TGI (COLO 205 colon): > 100 µM
TGI (HOP-62 NSCLC): > 100 µM
TGI (SW-620 colon): > 100 µM
TGI (T-47D breast): > 100 µM
TGI (UO-31 renal): > 100 µM
TGI (U251 CNS): > 100 µM
TGI (SR leukemia): > 100 µM
TGI (UACC-62 melanoma): > 100 µM
TGI (RPMI-8226 leukemia): > 100 µM
TGI (SK-OV-3 ovarian): > 100 µM
TGI (EKVX NSCLC): > 100 µM
TGI (LOX IMVI melanoma): > 100 µM
TGI (DU-145 prostate): > 100 µM
TGI (PC-3 prostate): > 100 µM
TGI (NCI-H226 lung): > 100 µM
TGI (SNB-19 CNS): > 100 µM
TGI (NCI/ADR-RES ovarian): > 100 µM
TGI (MDA-MB-231 breast): > 100 µM
TGI (OVCAR-4 ovarian): > 100 µM
TGI (ACHN renal): > 100 µM
TGI (A549 NSCLC): > 100 µM
TGI (OVCAR-3 ovarian): > 100 µM
TGI (K-562 leukemia): > 100 µM
TGI (SK-MEL-2 melanoma): > 100 µM
TGI (CAKI-1 renal): > 100 µM
TGI (OVCAR-5 ovarian): > 100 µM
TGI (BT-549 breast): > 100 µM
TGI (HCC-2998 colon): > 100 µM
TGI (786-0 renal): > 100 µM
TGI (HCT-15 colon): > 100 µM
TGI (IGROV1 ovarian): > 100 µM
TGI (OVCAR-8 ovarian): > 100 µM
TGI (NCI-H460 lung): > 100 µM
TGI (UACC-257 melanoma): > 100 µM
TGI (MCF7 breast): > 100 µM
TGI (SF-539 CNS): > 100 µM
TGI (M14 melanoma): > 100 µM
TGI (HT29 colon): > 100 µM
TGI (NCI-H23 lung): > 100 µM
TGI (KM12 colon): > 100 µM
TGI (SF-268 CNS): > 100 µM
TGI (SK-MEL-5 melanoma): > 100 µM
TGI (TK-10 renal): > 100 µM
TGI (HCT-116 colon): > 100 µM
TGI (SF-295 CNS): > 100 µM
